Source: ChEMBL document CHEMBL3045810, “Synthesis and evaluation of 4-(substituted)-acetylamino-3-mercapto-5-(4-substituted) phenyl-1,2,4-triazole derivatives as antimicrobial agents” (2012)
Activity calls are given as the source filed them. The rule behind the calls is not given here.

Key:
Escherichia coli [1] = assay: Antibacterial activity against Escherichia coli ATCC 8793 at 30 ug/ml after 24 hr by paper disk diffusion method; assay type: functional; settings: ATCC 8793, 24 h, read-out: DIZ
Bacillus subtilis [2] = assay: Antibacterial activity against Bacillus subtilis ATCC 6633 at 30 ug/ml after 24 hr by paper disk diffusion method; assay type: functional; settings: ATCC 6633, 24 h, read-out: DIZ
Staphylococcus aureus [3] = assay: Bactericidal activity against Staphylococcus aureus ATCC 25923; assay type: functional, organism-based
Fusarium oxysporum [4] = assay: Antifungal activity against Fusarium oxysporum MTCC 2087 at 70 ug/ml by paper disk diffusion method; assay type: functional; settings: read-out: DIZ
Pseudomonas aeruginosa [5] = assay: Antibacterial activity against Pseudomonas aeruginosa ATCC 27853 at 50 ug/ml after 24 hr by paper disk diffusion method; assay type: functional; settings: ATCC 27853, 24 h, read-out: DIZ
Bacillus subtilis [6] = assay: Antibacterial activity against Bacillus subtilis ATCC 6633 at 50 ug/ml after 24 hr by paper disk diffusion method; assay type: functional; settings: ATCC 6633, 24 h, read-out: DIZ
Escherichia coli [7] = assay: Antibacterial activity against Escherichia coli ATCC 8793 at 70 ug/ml after 24 hr by paper disk diffusion method; assay type: functional; settings: ATCC 8793, 24 h, read-out: DIZ
Aspergillus niger [8] = assay: Antifungal activity against Aspergillus niger MTCC 3323 at 70 ug/ml by paper disk diffusion method; assay type: functional; settings: read-out: DIZ
Fusarium oxysporum [9] = assay: Fungicidal activity against Fusarium oxysporum MTCC 2087; assay type: functional, organism-based
Aspergillus niger [10] = assay: Fungicidal activity against Aspergillus niger MTCC 3323; assay type: functional, organism-based
Candida albicans [11] = assay: Antifungal activity against Candida albicans MTCC 227 at 30 ug/ml by paper disk diffusion method; assay type: functional; settings: read-out: DIZ
Fusarium oxysporum [12] = assay: Antifungal activity against Fusarium oxysporum MTCC 2087 at 50 ug/ml by paper disk diffusion method; assay type: functional; settings: read-out: DIZ
Bacillus subtilis [13] = assay: Antibacterial activity against Bacillus subtilis ATCC 6633 at 70 ug/ml after 24 hr by paper disk diffusion method; assay type: functional; settings: ATCC 6633, 24 h, read-out: DIZ
Aspergillus niger [14] = assay: Antifungal activity against Aspergillus niger MTCC 3323 at 50 ug/ml by paper disk diffusion method; assay type: functional; settings: read-out: DIZ
Candida albicans [15] = assay: Fungicidal activity against Candida albicans MTCC 227; assay type: functional, organism-based
Pseudomonas aeruginosa [16] = assay: Antibacterial activity against Pseudomonas aeruginosa ATCC 27853 at 70 ug/ml after 24 hr by paper disk diffusion method; assay type: functional; settings: ATCC 27853, 24 h, read-out: DIZ
Aspergillus niger [17] = assay: Antifungal activity against Aspergillus niger MTCC 3323 at 30 ug/ml by paper disk diffusion method; assay type: functional; settings: read-out: DIZ
Staphylococcus aureus [18] = assay: Antibacterial activity against Staphylococcus aureus ATCC 25923 at 70 ug/ml after 24 hr by paper disk diffusion method; assay type: functional; settings: ATCC 25923, 24 h, read-out: DIZ
Fusarium oxysporum [19] = assay: Antifungal activity against Fusarium oxysporum MTCC 2087 at 30 ug/ml by paper disk diffusion method; assay type: functional; settings: read-out: DIZ
Pseudomonas aeruginosa [20] = assay: Bactericidal activity against Pseudomonas aeruginosa ATCC 27853; assay type: functional, organism-based
Bacillus subtilis [21] = assay: Bactericidal against Bacillus subtilis ATCC 6633; assay type: functional, organism-based
Escherichia coli [22] = assay: Bactericidal activity against Escherichia coli ATCC 8793; assay type: functional, organism-based
Candida albicans [23] = assay: Antifungal activity against Candida albicans MTCC 227 at 50 ug/ml by paper disk diffusion method; assay type: functional; settings: read-out: DIZ
Candida albicans [24] = assay: Antifungal activity against Candida albicans MTCC 227 at 70 ug/ml by paper disk diffusion method; assay type: functional; settings: read-out: DIZ
Staphylococcus aureus [25] = assay: Antibacterial activity against Staphylococcus aureus ATCC 25923 at 50 ug/ml after 24 hr by paper disk diffusion method; assay type: functional; settings: ATCC 25923, 24 h, read-out: DIZ
Pseudomonas aeruginosa [26] = assay: Antibacterial activity against Pseudomonas aeruginosa ATCC 27853 at 30 ug/ml after 24 hr by paper disk diffusion method; assay type: functional; settings: ATCC 27853, 24 h, read-out: DIZ
Escherichia coli [27] = assay: Antibacterial activity against Escherichia coli ATCC 8793 at 50 ug/ml after 24 hr by paper disk diffusion method; assay type: functional; settings: ATCC 8793, 24 h, read-out: DIZ
Staphylococcus aureus [28] = assay: Antibacterial activity against Staphylococcus aureus ATCC 25923 at 30 ug/ml after 24 hr by paper disk diffusion method; assay type: functional; settings: ATCC 25923, 24 h, read-out: DIZ

CCCCN(CCCC)CC(=O)Nn1c(S)nnc1-c1ccc(OC)cc1
zone of inhibition at 30 µg/mL (Escherichia coli [1]): 13 mm
zone of inhibition at 30 µg/mL (Bacillus subtilis [2]): 11.2 mm
Activity (Staphylococcus aureus [3]): Active
zone of inhibition at 70 µg/mL (Fusarium oxysporum [4]): 16.2 mm
zone of inhibition at 50 µg/mL (Pseudomonas aeruginosa [5]): 16.2 mm
zone of inhibition at 50 µg/mL (Bacillus subtilis [6]): 13 mm
zone of inhibition at 70 µg/mL (Escherichia coli [7]): 17.3 mm
zone of inhibition at 70 µg/mL (Aspergillus niger [8]): 22.4 mm
Activity (Fusarium oxysporum [9]): Active
Activity (Aspergillus niger [10]): Active
zone of inhibition at 30 µg/mL (Candida albicans [11]): 16.1 mm
zone of inhibition at 50 µg/mL (Fusarium oxysporum [12]): 14.3 mm
zone of inhibition at 70 µg/mL (Bacillus subtilis [13]): 15.2 mm
zone of inhibition at 50 µg/mL (Aspergillus niger [14]): 20.1 mm
Activity (Candida albicans [15]): Active
zone of inhibition at 70 µg/mL (Pseudomonas aeruginosa [16]): 18.2 mm
zone of inhibition at 30 µg/mL (Aspergillus niger [17]): 18.1 mm
zone of inhibition at 70 µg/mL (Staphylococcus aureus [18]): 17.2 mm
zone of inhibition at 30 µg/mL (Fusarium oxysporum [19]): 13.1 mm
Activity (Pseudomonas aeruginosa [20]): Active
Activity (Bacillus subtilis [21]): Active
Activity (Escherichia coli [22]): Active
zone of inhibition at 50 µg/mL (Candida albicans [23]): 18.3 mm
zone of inhibition at 70 µg/mL (Candida albicans [24]): 20.4 mm
zone of inhibition at 50 µg/mL (Staphylococcus aureus [25]): 15.2 mm
zone of inhibition at 30 µg/mL (Pseudomonas aeruginosa [26]): 15.1 mm
zone of inhibition at 50 µg/mL (Escherichia coli [27]): 15.1 mm
zone of inhibition at 30 µg/mL (Staphylococcus aureus [28]): 13.1 mm

CCCN(CCC)CC(=O)Nn1c(S)nnc1-c1ccc(C)cc1
zone of inhibition at 30 µg/mL (Escherichia coli [1]): 9.33 mm
zone of inhibition at 30 µg/mL (Bacillus subtilis [2]): 8.93 mm
Activity (Staphylococcus aureus [3]): Active
zone of inhibition at 70 µg/mL (Fusarium oxysporum [4]): 9.96 mm
zone of inhibition at 50 µg/mL (Pseudomonas aeruginosa [5]): 10.2 mm
zone of inhibition at 50 µg/mL (Bacillus subtilis [6]): 9.86 mm
zone of inhibition at 70 µg/mL (Escherichia coli [7]): 11.1 mm
zone of inhibition at 70 µg/mL (Aspergillus niger [8]): 14.4 mm
Activity (Fusarium oxysporum [9]): Active
Activity (Aspergillus niger [10]): Active
zone of inhibition at 30 µg/mL (Candida albicans [11]): 9.13 mm
zone of inhibition at 50 µg/mL (Fusarium oxysporum [12]): 8.4 mm
zone of inhibition at 70 µg/mL (Bacillus subtilis [13]): 10.1 mm
zone of inhibition at 50 µg/mL (Aspergillus niger [14]): 12.3 mm
Activity (Candida albicans [15]): Active
zone of inhibition at 70 µg/mL (Pseudomonas aeruginosa [16]): 11.1 mm
zone of inhibition at 30 µg/mL (Aspergillus niger [17]): 11.2 mm
zone of inhibition at 70 µg/mL (Staphylococcus aureus [18]): 10 mm
zone of inhibition at 30 µg/mL (Fusarium oxysporum [19]): 7.26 mm
Activity (Pseudomonas aeruginosa [20]): Active
Activity (Bacillus subtilis [21]): Active
Activity (Escherichia coli [22]): Active
zone of inhibition at 50 µg/mL (Candida albicans [23]): 10.5 mm
zone of inhibition at 70 µg/mL (Candida albicans [24]): 11.3 mm
zone of inhibition at 50 µg/mL (Staphylococcus aureus [25]): 9.33 mm
zone of inhibition at 30 µg/mL (Pseudomonas aeruginosa [26]): 9.56 mm
zone of inhibition at 50 µg/mL (Escherichia coli [27]): 10.3 mm
zone of inhibition at 30 µg/mL (Staphylococcus aureus [28]): 8.2 mm

CCCCCN(CCCCC)CC(=O)Nn1c(S)nnc1-c1ccc(OC)cc1
zone of inhibition at 30 µg/mL (Escherichia coli [1]): 8.97 mm
zone of inhibition at 30 µg/mL (Bacillus subtilis [2]): 6.13 mm
Activity (Staphylococcus aureus [3]): Active
zone of inhibition at 70 µg/mL (Fusarium oxysporum [4]): 8.2 mm
zone of inhibition at 50 µg/mL (Pseudomonas aeruginosa [5]): 7.13 mm
zone of inhibition at 50 µg/mL (Bacillus subtilis [6]): 7.26 mm
zone of inhibition at 70 µg/mL (Escherichia coli [7]): 10.2 mm
zone of inhibition at 70 µg/mL (Aspergillus niger [8]): 13 mm
Activity (Fusarium oxysporum [9]): inactive
Activity (Aspergillus niger [10]): inactive
zone of inhibition at 30 µg/mL (Candida albicans [11]): 10.1 mm
zone of inhibition at 50 µg/mL (Fusarium oxysporum [12]): 7.21 mm
zone of inhibition at 70 µg/mL (Bacillus subtilis [13]): 8.03 mm
zone of inhibition at 50 µg/mL (Aspergillus niger [14]): 12.2 mm
Activity (Candida albicans [15]): inactive
zone of inhibition at 70 µg/mL (Pseudomonas aeruginosa [16]): 8.1 mm
zone of inhibition at 30 µg/mL (Aspergillus niger [17]): 11.2 mm
zone of inhibition at 70 µg/mL (Staphylococcus aureus [18]): 9.16 mm
zone of inhibition at 30 µg/mL (Fusarium oxysporum [19]): 6.17 mm
Activity (Pseudomonas aeruginosa [20]): Active
Activity (Bacillus subtilis [21]): Active
Activity (Escherichia coli [22]): Active
zone of inhibition at 50 µg/mL (Candida albicans [23]): 11.3 mm
zone of inhibition at 70 µg/mL (Candida albicans [24]): 12.2 mm
zone of inhibition at 50 µg/mL (Staphylococcus aureus [25]): 8.13 mm
zone of inhibition at 30 µg/mL (Pseudomonas aeruginosa [26]): 6.23 mm
zone of inhibition at 50 µg/mL (Escherichia coli [27]): 9.26 mm
zone of inhibition at 30 µg/mL (Staphylococcus aureus [28]): 7.2 mm
